Data as given in ChEMBL document CHEMBL1156829 (Proc Natl Acad Sci U S A, 2008).
Bridge positions count the residues as written; N and C are the ends. Square brackets hold non-standard residues; d marks the D form. Peptide text beside a SMILES is read from it.

Columns and labels:
[1] = system: Plasmodium falciparum; assay: NOVARTIS: Inhibition of Plasmodium falciparum 3D7 (drug-susceptible) proliferation in erythrocyte-based infection assay; type: functional, organism-based
[2] = system: Plasmodium falciparum; assay: NOVARTIS: Inhibition of Plasmodium falciparum W2 (drug-resistant) proliferation in erythrocyte-based infection assay; type: functional, organism-based; conditions: read-out: EC50
[3] = NOVARTIS: Cytotoxicity against human hepatocellular carcinoma cell line (Huh7); type: toxicity, cell-based, Huh-7; conditions: Huh7 cells (hepatocellular carcinoma cell line)

SMILES	EC50 ([1]; Plasmodium falciparum, 3D7) [nM]	EC50 ([2]; Plasmodium falciparum, W2) [nM]	CC50 [3] [nM]	EC50 [1] [nM]	EC50 [2] [nM]
COc1cc(CNCCCn2ccnc2)ccc1OCc1ccccc1	> 1250	> 1170	> 10000	–	–
COc1ccccc1C1CC(=O)N2CN(Cc3ccccc3)CSC2=C1C#N (centres undefined)	599	337	> 100000	–	–
COc1ccc(-c2nc(NC(=O)CS(=O)(=O)c3ccc(F)cc3)sc2C)cc1	212	560	44100	–	–
COc1ccc(-c2c[n+](Cc3ccc(Cl)cc3Cl)c3n2CCC3)cc1	189	667	31800	–	–
N#Cc1nc(-c2ccccc2)c(-c2ccc(-c3nc(C#N)c(C#N)nc3-c3ccccc3)cc2)nc1C#N	1610	1160	> 10000	–	–
CCN(CC)CCN(C)C1CCc2c(c(C(=O)N3CCCC3)nn2C)C1 (centres undefined)	> 424	> 738	12400	–	–
COc1ccc(C2=C(Nc3ccc(C)c(C)c3)c3ccccc3C2=O)cc1	297	281	> 100000	–	–
O=C(NNS(=O)(=O)c1ccccc1[N+](=O)[O-])c1ccccc1	> 1250	> 833	> 10000	–	–
CCCn1c(SCC(=O)N2c3ccccc3CC2C)nc2c1c(=O)n(C)c(=O)n2C (centres undefined)	> 1250	< 27.1	> 10000	–	–
CC(C)C[C@@H]1NC(=O)[C@@H](CC(C)C)NC(=O)[C@H](C(C)C)NC(=O)[C@H]2CSSC[C@@H](NC1=O)C(=O)N2 (cyclo(L[dC][dC]V[dL]); disulfide 2-3)	> 1250	164	> 10000	–	–
CCCCCCCCCCCC(=O)Oc1ccccc1-c1nc2ccccn2c1NC(C)(C)CC(C)(C)C	1260	93.6	> 10000	–	–
Cc1cc(-c2cn[nH]c2C2CCCN(C(=O)Cc3ccccc3F)C2)on1 (centres undefined)	> 1250	> 969	> 10000	–	–
O=C(Cn1c2ccccc2c(=O)c2ccccc21)Nc1ccc([N+](=O)[O-])c(Br)c1	1110	632	> 100000	–	–
CC1CC(C)CN(S(=O)(=O)c2ccc(C(=O)Nc3ccc(-c4nc5ccccc5o4)cc3)cc2)C1 (centres undefined)	1200	> 1250	> 10000	–	–
CCOC(=O)c1c(CNC)n(C)c2cc(Br)c(O)cc12	458	691	> 100000	–	–
CCCCCCc1ccc(C(=O)N(CC(=O)Nc2cc(C(C)(C)C)nn2-c2ccc(Cl)c(Cl)c2)C(C)C)cc1	1390	> 752	> 10000	–	–
COc1cc(NC(C)CCCN(Cc2ccc(N(C)C)cc2)S(=O)(=O)c2cccc3ccccc23)c2ncccc2c1 (centres undefined)	806	645	> 13900	–	–
COc1ccc(-c2nc(-c3ccncc3)cnc2N)cc1OC	35.8	45.7	> 10000	–	–
Cc1cc(C)c(C(Nc2ccccn2)c2ccc3cccnc3c2O)c(C)c1 (centres undefined)	3180	1070	> 67900	–	–
CCCCN1C=CC=C/C1=C\c1sc2ccccc2[n+]1CC	120	226	1800	–	–
CCCn1c(C(CC)N2CCNCC2)nc2ccccc2c1=O (centres undefined)	285	637	> 10000	–	–
Cn1c(=O)c2c(nc3n(CCCO)c(C45CC6CC(CC(C6)C4)C5)cn23)n(C)c1=O	> 1250	1540	> 10000	–	–
COc1ccc(-c2cc(C(F)(F)F)n3nc(C(=O)NC4CCCCC4)c(Cl)c3n2)cc1OC	> 441	34.8	> 4020	–	–

SMILES	EC50 ([1]; Plasmodium falciparum, 3D7) [nM]	EC50 ([2]; Plasmodium falciparum, W2) [nM]	CC50 [3] [nM]	EC50 [1] [nM]	EC50 [2] [nM]
Cc1nc2ccc(Cl)cc2c(O)c1I	3470	714	> 100000	–	–
CC(C)CN1C(=O)c2ccccc2C(C(=O)Nc2cc(F)ccc2F)C1c1cccs1 (centres undefined)	260	150	> 100000	–	–
COc1ccc(C=NNc2cc(C)nc3ccc(OC)cc23)c(OC)c1	33.1	43.5	6690	–	–
CCCCCN(CCCCC)C(O)c1cc2c(c3ccccc13)CCCC2 (centres undefined)	58.2	377	35400	–	–
CC(C)CC[n+]1ccccc1C=Cc1ccc(N(C)C)cc1	–	–	> 30000	82.9	150
CCOc1ccc2nc(NCCNC(=O)c3ccco3)c(C)cc2c1	> 1250	> 279	> 10000	–	–
CCOC(=O)c1sc(Nc2c(Cl)cc(S(N)(=O)=O)cc2Cl)nc1C	> 1250	411	> 10000	–	–
C/C=C/C(C(=O)NCCCC)N1C(=O)c2cc(NC(C)=O)ccc2NC(=O)[C@@H]1CCC(=O)O (some centres undefined)	> 1500	49.9	442	–	–
CC(=O)N(C1=C(N2CCCC2)C(=O)c2ccccc2C1=O)c1ccccc1C	83.9	31.9	11500	–	–
COc1ccc(C=C2SC(=N)N(c3ccc4c(c3)OCO4)C2=O)cc1OC	> 9750	2280	> 100000	–	–
COC(=O)C1=C(C)NC2=C(C(=O)CC(c3ccc(OC)c(OC)c3)C2)C1c1ccc(F)cc1 (centres undefined)	27.9	14	> 100000	–	–
O=C(CN1CCN(C(=O)c2ccco2)CC1)Nc1ccccc1Br	358	188	> 100000	–	–
Cc1oc2c(c1C(=O)NCc1cccnc1)C(=O)c1ccccc1C2=O	1500	1750	1910	–	–
CC1(C)Oc2ccc(C(=O)N3CCCC3)cc2N(CCc2ccccc2)C1=O	> 1120	1870	> 10000	–	–
CCNC(=O)/C=C/c1ccc(C(C)(C)C)cc1	> 1100	441	> 10000	–	–
S=C(NN=Cc1ccccn1)NC1CC2C=CC1C2 (centres undefined)	38.5	44.8	44300	–	–
CC(C)c1ccc(NC(=O)C=Cc2ccccc2Cl)cc1	102	45.6	17500	–	–
COc1ccc(C2CC(=O)C3=C(C2)NC(C)=C(C(=O)OC2CCCC2)C3c2ccccc2OC)cc1OC (centres undefined)	212	72.8	> 100000	–	–
Cn1c(=O)n(C)c2cc(C=NN=c3[nH]cc(-c4ccccc4)s3)ccc21	> 1070	> 1250	> 10000	–	–
CN(C)Cc1c(O)ccc2oc(Cc3ccccc3)cc12	219	59	20100	–	–
CCOC(=O)COc1ccc(C2NC(=S)NC(C)=C2C(C)=O)cc1OC (centres undefined)	4030	496	> 100000	–	–
CCN(CC)C(=O)CSc1nnc(-c2ccccn2)n1-c1ccc(OC)cc1	1290	< 5.58	3190	–	–
O=C(Nc1ccc(C(c2ccccc2)(c2ccccc2)c2ccc(NC(=O)c3cccc([N+](=O)[O-])c3)cc2)cc1)c1cccc([N+](=O)[O-])c1	> 1250	1680	> 10000	–	–

SMILES	EC50 ([1]; Plasmodium falciparum, 3D7) [nM]	EC50 ([2]; Plasmodium falciparum, W2) [nM]	CC50 [3] [nM]	EC50 [1] [nM]	EC50 [2] [nM]
CCOC(=O)C(=O)N1c2ccc(C)cc2-c2c(ssc2=S)C1(C)C	46.5	37.7	> 100000	–	–
O=c1cc(C(F)(F)F)c2cc(Cl)c(O)cc2o1	> 12500	2120	> 100000	–	–
CC(=O)Oc1ccc(C(=O)C(C(C)=O)c2ccccc2)c(OC(C)=O)c1 (centres undefined)	> 1390	> 1020	> 10000	–	–
C=CC1CC23CC(C(OC(=O)CCC(=O)O)c4ccnc5ccc(OC)cc45)N2CCC13 (centres undefined)	14	77.5	45700	–	–
CC[n+]1c(/C=C/c2ccc(SC)cc2)ccc2ccccc21	43.6	102	> 10000	–	–
Cc1ccc(C(=O)NCCNC(=O)CN2CCOCC2)cc1	> 671	> 1250	> 10000	–	–
C(#Cc1ccccc1)C[N+]1(CCOc2ccccc2)CCCCC1	1440	981	> 100000	–	–
O=C(NCC1CCCO1)c1cnc(NCCCn2ccnc2)nc1NCCc1ccccc1 (centres undefined)	1010	26.7	> 10000	–	–
O=C(c1cccs1)N1CCN(c2ccccn2)CC1	2020	> 1560	> 10000	–	–
Oc1ccccc1-c1nc2sc(-c3ccccc3O)nc2s1	> 989	467	> 10000	–	–
CCCCC(CC)C(=O)N(CCCC(C)Nc1cc(OC)cc2cccnc12)Cc1ccc(OC)c(OC)c1 (centres undefined)	442	328	> 10000	–	–
c1ccc(COCC[N+]2(Cc3ccccc3)CCCCC2)cc1	> 1160	> 1250	> 10000	–	–
CCc1ccc(CN2CCC(O)(c3ccc4oc(C(=O)Nc5ccc6c(c5)OCO6)cc4c3)CC2)cc1	359	460	10300	–	–
CCOC(=O)C1=C(c2ccccc2)N=c2sc(=Cc3cc(C)n(-c4ccc(F)cc4)c3C)c(=O)n2C1c1cccc(OC)c1OC (centres undefined)	2320	2280	> 100000	–	–
CCCn1c(SCCNC(=O)NCC)nc(-c2ccccc2)c1-c1ccccc1	> 1400	> 1030	> 10000	–	–
CCC(=O)NCc1nnc(SCc2cccc(C(F)(F)F)c2)n1-c1cccc(OC)c1	> 12500	5610	> 100000	–	–
CCCCOc1ccc(C(=O)Nc2c3c(nn2-c2ccc(C)cc2C)CSC3)cc1	> 1520	1020	> 10000	–	–
O=C(CCl)Nc1ccc2c(c1)OCO2	1900	831	20300	–	–
CCOc1ccccc1C1C(C#N)=C(SCC(=O)Nc2ccc(Cl)cc2)NC(C)=C1C(=O)Nc1ccccc1 (centres undefined)	352	107	> 100000	–	–
CC(=O)c1c(C)oc2ccc(NS(=O)(=O)c3cccc(C(=O)O)c3)cc12	> 1250	> 515	> 10000	–	–
Cc1c(Cl)cccc1-n1c(C(C)N(CCc2ccccc2)C(=O)COc2ccccc2)nc2ccccc2c1=O (centres undefined)	614	701	> 10000	–	–
COc1ccc(C(OCC(=O)N2CCN(Cc3ccccc3)CC2)c2ccc(F)cc2)cn1 (centres undefined)	733	187	> 10000	–	–
